Test results reported in US11584741B2, “Crystalline forms of 4-(5-(4,7-dimethylbenzofuran-2-yl)-1,2,4-oxadiazol-3-yl)benzoic acid and processes for their preparation” (King's College London, priority 2016, dated 2023).
≈ marks a conversion by molar mass, not a printed value. Entries after “also recorded” stand apart in the source; their conditions may differ.

Legend:
[1] = Stability studies on storage (appearance, drug content, water content, drug-related impurities); type: physicochemical
Method: Stability studies were performed as follows. Samples were packaged in double low density polyethylene bags, sealed with plastic ties, and placed in high-density polyethylene (HDPE) drums.
The samples were tested periodically for visual appearance, drug content (by HPLC), water content (by Karl Fischer titration), and drug-related impurities (by HPLC).
Drug content, corrected to a water and solvent free basis, is calculated from the following equation: Content (%)=100−(water+solvents+residue on ignition+related impurities).
Drug-related impurities were determined using a reverse-phase gradient HPLC method with UV detection at 254 nm, using a 150 mm×4.6 mm, 3 μm Waters Atlantis T3 column, with the following parameters: […]

[2] = Dynamic vapour sorption (DVS) hygroscopicity; type: physicochemical; settings: from DVS, 0% to 95% RH
Method: The DVS studies were performed using a Surface Measurement Systems Ltd. DVS-1 No Video (Equipment #2126).
The sample was weighed in a glass pan, typically 20-30 mg, and equilibrated at 0% RH. After the material had dried, the relative humidity (RH) was increased with 10% per step for 1 hour per increment, ending at 95% RH.
The software used for data collection was DVSWn v3.01 No Video. Data analysis was performed using DVS Standard Analysis Suite v6.3.0 (Standard).
To determine the hygroscopicity of Form 1, a DVS plot was measured at 25° C. for a double sorption-desorption cycle. The total mass uptake was 8.7% w/w between 0% and 95% RH, which characterised Form 1 as a hygroscopic form. The uptake was reversible and reproducible.
To determine the hygroscopicity of Form 4, a DVS plot was measured at 25° C. for a double sorption-desorption cycle. The total mass uptake was 0.1% between 0% and 95% RH, which characterises Form 4 as a non-hygroscopic form.

RARβ [3] = target: T1, RARβ (Homo sapiens, UniProt P10826); test: Transcriptional transactivation assay, gal4-RAR fusion receptor / luciferase reporter in COS-7 cells; type: cell-based; settings: Table 21
T1 construct: expressed in transfected cells; host or cells: COS-7
T1 sequence (P10826 183-417 limits assumed): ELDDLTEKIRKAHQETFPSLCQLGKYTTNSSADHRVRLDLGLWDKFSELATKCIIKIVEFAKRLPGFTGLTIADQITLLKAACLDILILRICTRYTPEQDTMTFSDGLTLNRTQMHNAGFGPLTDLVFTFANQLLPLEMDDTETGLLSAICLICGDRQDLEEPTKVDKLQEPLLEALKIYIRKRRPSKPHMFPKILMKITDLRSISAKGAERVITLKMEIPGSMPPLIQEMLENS
Method: (§1) Transcriptional transactivation assays were performed with gal4 fusion receptor constructs, created using each of the RAR ligand binding domains of either mouse or human, co-transfected with the pFR-luc (Stratagene) reporter construct in COS-7 cells.
(§2) Briefly, on day 1, 96 well plates were seeded with 8000 cells per well then left to recover overnight. On day 2, the cells were co-transfected with 100 ng of reporter plasmid and 10 ng of the appropriate receptor plasmid per well using lipofectamine (Invitrogen). On day 3, the lipofectamine containing media was replaced by a DMEM without phenol red, followed by the addition of test compound dissolved in 1 μL of DMSO to each well's 100 μL total volume. Finally, on day 4, the cells were lysed and their luciferase substrate was provided by the BrightGlo™ reagent (Promega), the plates were then read on the MicroBeta TrLux™ (Perkin Elmer).
(§3) Data for test compounds are quoted as EC50 values. Where replicate data has been generated, the data are quoted as the mean EC50 from the separate experiments.

RARβ [4] = target: T2, RARβ (Mus musculus, UniProt P22605); test: as above; type: cell-based
T2 construct: expressed in transfected cells; host or cells: COS-7
T2 sequence (P22605 210-444 limits assumed): T1 sequence (P10826 183-417 limits assumed)
Method: as §1, §2, §3

[5] = Solubility studies, shake-flask method in 15 solvents; type: physicochemical; settings: for solubility at 24 h: 20° C.
Method: The solubility of BHBA-001 (characterised by XRPD as Form 1) was determined in 15 solvents to study the initial polymorphic behaviour. A shake-flask method was applied in which solid was added stepwise (e.g., 10 mg at a time) to a known amount of solvent (e.g., 3 mL). The solubility was confirmed visually. After the addition, the suspension/solution was held for 24 hours at 20° C. in order to check for slow dissolution or recrystallization. If the solid was not completely dissolved, the suspension was heated to 50° C. to encourage dissolution. The solvent was then removed by evaporation, in some cases, with the help of anti-solvent. The resulting solid was analysed using XRPD.

[6] = system: rats with severed and re-implanted sensory roots at the level of the left forelimb; test: Sensory roots of four DRG severed and re-implanted into the spinal cord, sticky tape tests; type: in vivo; settings: rat, after 5 weeks, 1 mg/kg three times a week
Method: In another example of nerve injury, the four sensory roots from each of four DRG at the level of the left forelimb were severed and re-implanted into the spinal cord.
The results are illustrated in Borthwick et al., 2016. […] Rats were treated with 1 mg/kg of the test compound or vehicle two days after lesion, and then three times a week for the period of the experiment. Error bars show SEM. ***P<0.001, students t test, n=3-4 rats for each treatment group. At weeks 3, 4, and 5, there was significant difference between the rats treated with RARβ agonist as compared to rats treated with other retinoid agonists and vehicle.

cerebellar neurons = test: Neurite outgrowth assay, cerebellar neurons in the presence of myelin / MAG; type: cell-based, rat; settings: for Effect on RARβ agonist (CD2019) mediated neurite outgrowth: cerebellar neurons cultured with CD2019 plus inhibitor; for Effect on RARβ agonist (CD2019) mediated neurite outgrowth in the presence of MAG: cerebellar neurons
Method: Cerebellar neurons isolated from post-natal day 3 rat pups were cultured over monolayers of parental 3T3 cells in control media, or media supplemented with a recombinant MAG-Fc chimera (R&D Systems) used at a final concentration of 20 μg/mL MAG-Fc. The monolayers were established for 24 hours prior to addition of the neurons and the co-cultures were maintained for approximately 21 hours. Following careful fixation with 4% paraformaldehyde, the neurons were immuno-stained with a GAP-43 antibody (from Graham Wilkin, Imperial College), dilution of 1:500, and the mean length of the longest neurite per cell was measured for approximately 120-150 neurons as previously described (see, e.g., Williams et al., 2005). DRG and cortical explants were obtained from adult rats, they were cultured in cellogen as previously described (see, e.g., Corcoran and Maden, 1999). Three explants per treatment were used. Neurite outgrowth was assessed 3 days later by immunohistochemistry with NF200 (Sigma, dilution of 1:200). The average lengths of the neurites were measured using image pro plus software. Media consisted of DMEM-F12 (Invitrogen) containing N2 (Invitrogen) supplemented with glucose (33 mM) and glutamine (2 mM).

[7] = after 24 months at 25° C./60% RH and 6 months at 40° C./75% RH

SMILES: Cc1ccc(C)c2oc(-c3nc(-c4ccc(C(=O)O)cc4)no3)cc12 [Form 4, 4-(5-(4,7-dimethylbenzofuran-2-yl)-1,2,4-oxadiazol-3-yl)benzoic acid]
- Storage time shown to be stable ([1]; 25° C./60% RH): at least 24 months
- Drug Content ([1]; 25° C./60% RH, 3 months): 98.7 % w/w
- Drug-Related Impurities ([1]; 25° C./60% RH, 3 months): 0.06 % area
- Visual Appearance ([1]; 25° C./60% RH, 3 months): As initial
- Water content ([1]; 25° C./60% RH, 3 months): <0.1 % w/w
- Drug Content ([1]; 25° C./60% RH, 6 months): 100.2 % w/w
- Drug-Related Impurities ([1]; 25° C./60% RH, 6 months): 0.05 % area
- Visual Appearance ([1]; 25° C./60% RH, 6 months): As initial
- Water content ([1]; 25° C./60% RH, 6 months): <0.1 % w/w
- Drug Content ([1]; 25° C./60% RH, 9 months): 99.2 % w/w
- Drug-Related Impurities ([1]; 25° C./60% RH, 9 months): 0.03 % area
- Visual Appearance ([1]; 25° C./60% RH, 9 months): As initial
- Water content ([1]; 25° C./60% RH, 9 months): <0.1 % w/w
- Drug Content ([1]; 25° C./60% RH, 12 months): 100.4 % w/w
- Drug-Related Impurities ([1]; 25° C./60% RH, 12 months): 0.03 % area
- Visual Appearance ([1]; 25° C./60% RH, 12 months): Off-white
- Water content ([1]; 25° C./60% RH, 12 months): <0.1 % w/w
- Drug Content ([1]; 25° C./60% RH, 18 months): 101.1 % w/w
- Drug-Related Impurities ([1]; 25° C./60% RH, 18 months): 0.07 % area
- Visual Appearance ([1]; 25° C./60% RH, 18 months): Off-white
- Water content ([1]; 25° C./60% RH, 18 months): <0.1 % w/w
- Drug Content ([1]; 25° C./60% RH, 24 months): 101.5 % w/w
- Drug-Related Impurities ([1]; 25° C./60% RH, 24 months): <0.03 % area
- Visual Appearance ([1]; 25° C./60% RH, 24 months): As initial
- Water content ([1]; 25° C./60% RH, 24 months): <0.1 % w/w
- Storage time shown to be stable ([1]; 40° C./75% RH): ≥ 6 months
- Drug Content ([1]; 40° C./75% RH, 3 months): 98.3 % w/w
- Drug-Related Impurities ([1]; 40° C./75% RH, 3 months): 0.10 % area
- Visual Appearance ([1]; 40° C./75% RH, 3 months): As initial
- Water content ([1]; 40° C./75% RH, 3 months): <0.1 % w/w
- Drug Content ([1]; 40° C./75% RH, 6 months): 99.8 % w/w
- Drug-Related Impurities ([1]; 40° C./75% RH, 6 months): 0.05 % area
- Visual Appearance ([1]; 40° C./75% RH, 6 months): As initial
- Water content ([1]; 40° C./75% RH, 6 months): <0.1 % w/w
- Drug Content ([1]; Initial, 0 months): 100.1 % w/w
- Drug-Related Impurities ([1]; Initial, 0 months): 0.03 % area
- Visual Appearance ([1]; Initial, 0 months): White
- Water content ([1]; Initial, 0 months): <0.1 % w/w
- Change of appearance on storage [1, 7]: essentially unchanged
- Change of drug content on storage [1, 7]: essentially unchanged
- Change of drug-related impurity levels on storage [1, 7]: essentially unchanged
- Change of water content on storage [1, 7]: essentially unchanged
- Stability at ambient conditions (in words) ([1]; ambient conditions): stable for many months
- Hygroscopicity characterisation [2]: low hygroscopicity; also recorded: non-hygroscopic

SMILES: Cc1ccc(C)c2oc(-c3nc(-c4ccc(C(=O)O)cc4)no3)cc12 [BHBA-001, 4-(5-(4,7-dimethylbenzofuran-2-yl)-1,2,4-oxadiazol-3-yl)benzoic acid]
- Selectivity over RARα (RARβ [3]): 23-fold
- Selectivity over RARγ (RARβ [3]): 5-fold
- Selectivity over RARγ (RARβ [4]; Mouse, Table 21): 6-fold
- EC50 (RARβ [4]; Table 20, mean of three or more determinations, species not given, value equals mouse value of Table 21): < 2 nM
- Solubility (in words) ([5]; in most solvents of the 15 tested): only poorly soluble
- solubility at 24 h ([5]; organic solvent or mixture, thermodynamic from solid, 1-propanol, starting solid Form 1): < 3000 µg/mL
- solubility at 24 h ([5]; organic solvent or mixture, thermodynamic from solid, 2-methyltetrahydrofuran, starting solid Form 1): 5000 to 10000 µg/mL (≈ 15 to 29.9 mM)
- solubility at 24 h ([5]; organic solvent or mixture, thermodynamic from solid, 2-propanol, starting solid Form 1): < 3000 µg/mL
- solubility at 24 h ([5]; organic solvent or mixture, thermodynamic from solid, acetic acid, starting solid Form 1): < 4000 µg/mL
- solubility ([5]; organic solvent or mixture, thermodynamic from solid, acetone, at 50° C. (footnote), starting solid Form 1): < 3000 µg/mL
- solubility at 24 h ([5]; organic solvent or mixture, thermodynamic from solid, acetonitrile, starting solid Form 1): < 4000 µg/mL
- solubility at 24 h ([5]; organic solvent or mixture, thermodynamic from solid, dichloromethane, starting solid Form 1): < 3000 µg/mL
- solubility at 24 h ([5]; organic solvent or mixture, thermodynamic from solid, ethanol, starting solid Form 1): < 4000 µg/mL
- solubility at 24 h ([5]; organic solvent or mixture, thermodynamic from solid, ethyl acetate, starting solid Form 1): < 4000 µg/mL
- solubility at 24 h ([5]; organic solvent or mixture, thermodynamic from solid, isopropyl acetate, starting solid Form 1): 4000 µg/mL (≈ 12 mM)
- solubility at 24 h ([5]; organic solvent or mixture, thermodynamic from solid, methyl tert-butyl ether, starting solid Form 1): < 3000 µg/mL
- solubility at 24 h ([5]; organic solvent or mixture, thermodynamic from solid, n-heptane, starting solid Form 1): < 3000 µg/mL
- solubility at 24 h ([5]; organic solvent or mixture, thermodynamic from solid, tetrahydrofuran (THF), starting solid Form 1): 9000 to 30000 µg/mL (≈ 26.9 to 89.7 mM)
- solubility at 24 h ([5]; organic solvent or mixture, thermodynamic from solid, toluene, starting solid Form 1): < 3000 µg/mL
- solubility at 24 h ([5]; thermodynamic from solid, water, starting solid Form 1): < 3000 µg/mL
- Behavioural test (sticky tape) [6]: performed as well as non-lesioned animals

SMILES: CCCCCCOC(=O)[C@]1(O)C[C@@H]2O[C@@]1(C)n1c3ccccc3c3c4c(c5c6ccccc6n2c5c31)C(=O)NC4 [KT5720]
- Effect on RARβ agonist (CD2019) mediated neurite outgrowth (cerebellar neurons): little or no effect
- Effect on RARβ agonist (CD2019) mediated neurite outgrowth in the presence of MAG (cerebellar neurons): does not affect

SMILES: O=c1cc(N2CCOCC2)oc2c(-c3ccccc3)cccc12 [LY295002]
- Effect on RARβ agonist (CD2019) mediated neurite outgrowth (cerebellar neurons): severely impeded
- Effect on RARβ agonist (CD2019) mediated neurite outgrowth in the presence of MAG (cerebellar neurons): prevents

SMILES: Cc1ccc(C)c2oc(-c3nc(-c4ccc(C(=O)O)cc4)no3)cc12 [Form 1, 4-(5-(4,7-dimethylbenzofuran-2-yl)-1,2,4-oxadiazol-3-yl)benzoic acid]
- Hygroscopicity characterisation [2]: hygroscopic
